ChEMBL document CHEMBL4014283, “Structural insights of SmKDAC8 inhibitors: Targeting Schistosoma epigenetics through a combined structure-based 3D QSAR, in vitro and synthesis strategy” (Bioorg Med Chem, 2017)
The source made the active and inactive calls. The calls are words filed in the database; no cut-off is given here.

Legend:
[1] = biological target: T1, Histone deacetylase 8 (Schistosoma mansoni) (UniProt A5H660); assay: Inhibition of Schistosoma mansoni KDAC8 at 30 uM using (FAM)-labeled peptide as substrate after 60 mins by microfluidic assay
T1 sequence (whole entry): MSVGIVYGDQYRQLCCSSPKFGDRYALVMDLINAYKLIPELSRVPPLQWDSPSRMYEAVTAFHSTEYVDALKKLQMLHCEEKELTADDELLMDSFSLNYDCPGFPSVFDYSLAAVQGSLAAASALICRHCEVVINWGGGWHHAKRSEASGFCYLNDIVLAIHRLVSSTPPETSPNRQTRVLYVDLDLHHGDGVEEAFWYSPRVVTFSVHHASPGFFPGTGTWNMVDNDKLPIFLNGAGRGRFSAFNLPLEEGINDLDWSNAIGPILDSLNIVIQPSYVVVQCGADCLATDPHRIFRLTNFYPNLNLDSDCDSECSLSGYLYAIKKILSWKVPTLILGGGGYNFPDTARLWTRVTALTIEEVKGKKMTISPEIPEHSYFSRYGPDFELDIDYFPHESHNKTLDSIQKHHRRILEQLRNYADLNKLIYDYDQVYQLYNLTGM

[2] = biological target: KDAC3/NCOR2 (histone deacetylase 3/nuclear receptor corepressor 2 complex) (Homo sapiens, UniProt O15379); assay: (§1) Inhibition of full length human C-terminal His-tagged KDAC3/N-terminal GST-tagged human NCOR2 (395 to 489 residues) expressed in baculovirus expression system at 30 uM using FITC-p53 acetylated peptide as substrate after 60 mins by microfluidic assay; settings: probe FITC-p53 acetylated peptide
Sequence of KDAC3/NCOR2 (histone deacetylase 3/nuclear receptor corepressor 2 complex) (O15379 whole entry, the tested form may be a part): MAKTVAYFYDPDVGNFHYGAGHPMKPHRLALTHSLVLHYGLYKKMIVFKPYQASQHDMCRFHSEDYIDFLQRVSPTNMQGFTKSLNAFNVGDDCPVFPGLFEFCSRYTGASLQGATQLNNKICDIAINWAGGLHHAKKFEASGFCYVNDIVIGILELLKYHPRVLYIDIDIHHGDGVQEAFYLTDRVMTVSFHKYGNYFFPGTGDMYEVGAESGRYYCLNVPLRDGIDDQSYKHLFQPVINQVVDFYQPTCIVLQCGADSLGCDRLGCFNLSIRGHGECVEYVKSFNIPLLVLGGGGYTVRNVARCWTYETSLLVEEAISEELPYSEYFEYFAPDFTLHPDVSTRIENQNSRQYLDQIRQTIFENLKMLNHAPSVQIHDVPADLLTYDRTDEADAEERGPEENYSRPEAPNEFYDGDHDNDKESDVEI
Sequence of KDAC3/NCOR2 (histone deacetylase 3/nuclear receptor corepressor 2 complex) (Q9Y618 whole entry, further chain, the tested form may be a part): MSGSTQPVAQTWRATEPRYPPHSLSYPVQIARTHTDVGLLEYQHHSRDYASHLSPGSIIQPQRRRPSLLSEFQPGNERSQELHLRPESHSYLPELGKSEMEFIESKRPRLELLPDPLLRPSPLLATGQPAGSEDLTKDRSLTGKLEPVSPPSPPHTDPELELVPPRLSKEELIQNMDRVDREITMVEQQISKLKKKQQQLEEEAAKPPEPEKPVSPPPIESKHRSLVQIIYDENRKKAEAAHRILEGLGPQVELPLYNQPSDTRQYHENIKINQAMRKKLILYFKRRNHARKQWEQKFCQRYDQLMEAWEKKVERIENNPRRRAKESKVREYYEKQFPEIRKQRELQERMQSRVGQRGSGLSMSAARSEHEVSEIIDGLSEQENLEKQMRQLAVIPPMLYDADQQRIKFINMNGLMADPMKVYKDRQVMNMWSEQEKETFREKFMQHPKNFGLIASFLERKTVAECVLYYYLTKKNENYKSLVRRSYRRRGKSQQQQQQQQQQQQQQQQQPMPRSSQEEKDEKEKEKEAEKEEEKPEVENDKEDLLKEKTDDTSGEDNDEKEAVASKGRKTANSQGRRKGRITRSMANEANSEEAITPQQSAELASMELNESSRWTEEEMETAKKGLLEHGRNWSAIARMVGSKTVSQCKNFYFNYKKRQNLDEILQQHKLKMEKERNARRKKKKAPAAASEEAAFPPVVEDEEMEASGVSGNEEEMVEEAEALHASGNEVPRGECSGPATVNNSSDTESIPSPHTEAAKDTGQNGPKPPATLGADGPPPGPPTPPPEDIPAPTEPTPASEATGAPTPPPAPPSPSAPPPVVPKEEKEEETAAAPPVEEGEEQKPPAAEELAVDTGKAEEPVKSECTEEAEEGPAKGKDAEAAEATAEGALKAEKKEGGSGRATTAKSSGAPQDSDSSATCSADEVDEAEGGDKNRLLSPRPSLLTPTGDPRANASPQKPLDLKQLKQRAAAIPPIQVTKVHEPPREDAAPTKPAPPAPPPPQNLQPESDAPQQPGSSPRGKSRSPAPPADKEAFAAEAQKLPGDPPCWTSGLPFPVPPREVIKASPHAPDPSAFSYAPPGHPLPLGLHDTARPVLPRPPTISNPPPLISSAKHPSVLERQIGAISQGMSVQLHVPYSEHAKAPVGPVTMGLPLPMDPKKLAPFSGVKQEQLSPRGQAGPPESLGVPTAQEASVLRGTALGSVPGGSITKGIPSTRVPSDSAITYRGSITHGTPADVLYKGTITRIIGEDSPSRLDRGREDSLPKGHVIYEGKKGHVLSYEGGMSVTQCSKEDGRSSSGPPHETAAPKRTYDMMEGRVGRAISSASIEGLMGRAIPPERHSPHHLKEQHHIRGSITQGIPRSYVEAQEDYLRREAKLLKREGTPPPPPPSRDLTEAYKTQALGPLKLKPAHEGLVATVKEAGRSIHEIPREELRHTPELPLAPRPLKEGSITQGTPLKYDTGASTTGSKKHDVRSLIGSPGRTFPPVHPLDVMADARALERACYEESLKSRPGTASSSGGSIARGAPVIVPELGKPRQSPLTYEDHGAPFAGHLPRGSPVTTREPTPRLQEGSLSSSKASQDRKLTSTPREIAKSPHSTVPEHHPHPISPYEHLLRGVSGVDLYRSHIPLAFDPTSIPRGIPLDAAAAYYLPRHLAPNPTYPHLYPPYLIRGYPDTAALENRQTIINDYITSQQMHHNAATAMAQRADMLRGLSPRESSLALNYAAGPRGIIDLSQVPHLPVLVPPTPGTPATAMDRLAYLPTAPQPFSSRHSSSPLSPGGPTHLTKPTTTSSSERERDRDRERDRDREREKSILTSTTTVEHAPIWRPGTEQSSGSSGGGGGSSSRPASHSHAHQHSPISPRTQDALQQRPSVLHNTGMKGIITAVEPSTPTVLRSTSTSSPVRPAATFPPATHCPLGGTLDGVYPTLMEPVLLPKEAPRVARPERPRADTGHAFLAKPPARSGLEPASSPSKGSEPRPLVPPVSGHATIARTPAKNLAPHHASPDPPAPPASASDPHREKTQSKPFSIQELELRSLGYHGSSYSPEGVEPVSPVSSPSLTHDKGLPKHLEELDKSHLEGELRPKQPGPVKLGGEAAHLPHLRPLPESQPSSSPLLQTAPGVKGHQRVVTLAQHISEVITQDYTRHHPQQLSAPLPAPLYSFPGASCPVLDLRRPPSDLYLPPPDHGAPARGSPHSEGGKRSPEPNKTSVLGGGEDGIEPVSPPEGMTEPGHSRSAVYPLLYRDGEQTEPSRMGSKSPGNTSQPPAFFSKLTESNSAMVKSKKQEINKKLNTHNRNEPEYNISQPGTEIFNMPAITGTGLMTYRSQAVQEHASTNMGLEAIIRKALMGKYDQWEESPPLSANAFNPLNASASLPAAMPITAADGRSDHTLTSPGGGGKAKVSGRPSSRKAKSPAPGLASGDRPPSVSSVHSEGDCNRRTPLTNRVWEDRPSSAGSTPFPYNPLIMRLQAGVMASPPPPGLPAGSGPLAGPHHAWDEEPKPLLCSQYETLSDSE

[3] = biological target: KDAC1 (histone deacetylase 1) (Homo sapiens, UniProt Q13547); assay: (§2) Inhibition of full length human C-terminal FLAG/His-tagged KDAC1 expressed in baculovirus expression system at 30 uM using substrate A after 60 mins by microfluidic assay relative to control; settings: probe substrate A
Sequence of KDAC1 (histone deacetylase 1) (Q13547 whole entry): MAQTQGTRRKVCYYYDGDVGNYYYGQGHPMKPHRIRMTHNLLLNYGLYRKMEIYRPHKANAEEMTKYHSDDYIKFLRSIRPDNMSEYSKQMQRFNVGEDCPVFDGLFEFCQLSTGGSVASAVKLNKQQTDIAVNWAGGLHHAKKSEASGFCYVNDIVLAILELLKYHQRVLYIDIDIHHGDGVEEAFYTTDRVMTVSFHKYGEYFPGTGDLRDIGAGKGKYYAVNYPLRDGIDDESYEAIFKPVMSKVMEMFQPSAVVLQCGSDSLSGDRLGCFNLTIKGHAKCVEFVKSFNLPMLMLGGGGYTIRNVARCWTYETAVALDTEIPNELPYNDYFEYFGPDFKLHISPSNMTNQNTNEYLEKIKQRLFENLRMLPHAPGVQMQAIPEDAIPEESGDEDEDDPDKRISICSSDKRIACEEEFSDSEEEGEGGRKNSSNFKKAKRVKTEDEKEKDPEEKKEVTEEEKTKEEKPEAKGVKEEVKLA

Histone deacetylase 8 = biological target: T2, Histone deacetylase 8 (Homo sapiens, UniProt Q9BY41); assay: (§3) Inhibition of full length human C-terminal His-tagged KDAC8 expressed in baculovirus expression system at 30 uM using (FAM)-labeled peptide as substrate after 60 mins by microfluidic assay relative to control; settings: 1 h, 30 µM
T2 sequence (Q9BY41 whole entry): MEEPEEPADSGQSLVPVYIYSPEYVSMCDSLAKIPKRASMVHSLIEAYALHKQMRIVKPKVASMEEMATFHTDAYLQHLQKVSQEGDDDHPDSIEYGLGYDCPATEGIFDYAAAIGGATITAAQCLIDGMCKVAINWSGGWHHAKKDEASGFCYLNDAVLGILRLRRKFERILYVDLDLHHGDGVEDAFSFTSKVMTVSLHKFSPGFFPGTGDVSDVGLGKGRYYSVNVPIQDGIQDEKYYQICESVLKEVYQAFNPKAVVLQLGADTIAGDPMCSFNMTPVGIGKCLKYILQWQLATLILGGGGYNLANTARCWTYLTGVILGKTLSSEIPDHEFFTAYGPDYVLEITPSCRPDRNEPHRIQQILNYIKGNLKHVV

[4] = biological target: T3, Protein deacetylase HDAC6 (Homo sapiens, UniProt Q9UBN7); assay: (§4) Inhibition of human KDAC6 expressed in baculovirus expression system at 30 uM using FITC-Histone 4 acetylated peptide as substrate after 60 mins by microfluidic assay; settings: 1 h, 30 µM
T3 sequence (Q9UBN7 whole entry): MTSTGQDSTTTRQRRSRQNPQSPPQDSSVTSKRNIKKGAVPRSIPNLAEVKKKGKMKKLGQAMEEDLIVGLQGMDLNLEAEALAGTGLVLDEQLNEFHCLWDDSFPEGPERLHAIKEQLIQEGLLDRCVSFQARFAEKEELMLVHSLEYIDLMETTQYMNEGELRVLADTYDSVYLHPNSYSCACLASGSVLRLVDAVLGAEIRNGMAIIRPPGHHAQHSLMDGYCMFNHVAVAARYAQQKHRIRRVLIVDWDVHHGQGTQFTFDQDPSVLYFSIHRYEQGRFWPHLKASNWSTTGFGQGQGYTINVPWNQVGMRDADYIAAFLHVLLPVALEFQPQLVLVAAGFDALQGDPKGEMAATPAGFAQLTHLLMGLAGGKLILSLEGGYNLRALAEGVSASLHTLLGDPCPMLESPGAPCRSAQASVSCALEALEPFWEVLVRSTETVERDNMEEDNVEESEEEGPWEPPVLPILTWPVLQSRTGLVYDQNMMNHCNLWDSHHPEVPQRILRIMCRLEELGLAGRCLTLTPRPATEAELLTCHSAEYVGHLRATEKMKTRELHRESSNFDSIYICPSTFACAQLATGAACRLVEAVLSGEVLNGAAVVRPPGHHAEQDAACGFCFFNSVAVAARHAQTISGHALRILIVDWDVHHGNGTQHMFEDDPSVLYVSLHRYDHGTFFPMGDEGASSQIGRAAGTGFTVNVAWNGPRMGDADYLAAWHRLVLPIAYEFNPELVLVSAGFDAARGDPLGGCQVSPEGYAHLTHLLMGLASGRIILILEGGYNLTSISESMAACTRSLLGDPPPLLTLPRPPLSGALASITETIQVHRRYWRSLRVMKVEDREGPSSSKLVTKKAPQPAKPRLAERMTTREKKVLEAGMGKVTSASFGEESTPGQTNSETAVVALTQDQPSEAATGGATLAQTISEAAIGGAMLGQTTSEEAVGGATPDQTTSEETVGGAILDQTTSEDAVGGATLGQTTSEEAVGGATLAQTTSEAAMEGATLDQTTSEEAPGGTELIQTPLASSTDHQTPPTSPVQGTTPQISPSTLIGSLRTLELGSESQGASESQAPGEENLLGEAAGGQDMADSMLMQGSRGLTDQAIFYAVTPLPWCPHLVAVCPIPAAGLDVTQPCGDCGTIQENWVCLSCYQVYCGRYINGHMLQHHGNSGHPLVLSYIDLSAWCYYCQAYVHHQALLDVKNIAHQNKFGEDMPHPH

Histone deacetylase 1 = Histone deacetylase 1 (Homo sapiens, UniProt Q13547); assay: as §2; settings: 1 h, 30 µM
Sequence of Histone deacetylase 1 (Q13547 whole entry): as the sequence (Q13547 whole entry) above

[5] = biological target: T4, KDAC8 (histone deacetylase 8) (Homo sapiens, UniProt Q9BY41); assay: as §3; settings: probe (FAM)-labeled peptide
T4 sequence (Q9BY41 whole entry): T2 sequence (Q9BY41 whole entry)

[6] = biological target: T5, KDAC6 (protein deacetylase HDAC6) (Homo sapiens, UniProt Q9UBN7); assay: as §4; settings: probe FITC-Histone 4 acetylated peptide
T5 sequence (Q9UBN7 whole entry): T3 sequence (Q9UBN7 whole entry)

[7] = biological target: Histone deacetylase 3/Nuclear receptor corepressor 2 (HDAC3/NCoR2) (Homo sapiens, UniProt O15379+Q9Y618); assay: as §1; settings: 1 h, 30 µM
Sequence of Histone deacetylase 3/Nuclear receptor corepressor 2 (HDAC3/NCoR2) (O15379 whole entry): as the sequence (O15379 whole entry, the tested form may be a part) above
Sequence of Histone deacetylase 3/Nuclear receptor corepressor 2 (HDAC3/NCoR2) (Q9Y618 whole entry): as the sequence (Q9Y618 whole entry, further chain, the tested form may be a part) above

Row | inhibition [1] | inhibition at 1 h, 30 µM [2] | inhibition at 1 h, 30 µM [3] | inhibition (INH) (Histone deacetylase 8) | inhibition (INH) [4] | inhibition (INH) (Histone deacetylase 1) | inhibition at 1 h, 30 µM [5] | inhibition at 1 h, 30 µM [6] | inhibition (INH) [7] | Compound
1 | inactive | 7% | 1% | Not Active | Not Active | – | – | – | – | CCOC(=O)C(Cc1ccc(O)cc1)Nc1nc2ccccc2o1 (stereo not given)
2 | inactive | 10% | 3% | Not Active | Not Active | – | – | – | – | O=C(Nc1cccc([N+](=O)[O-])c1)c1ccc2ccccc2c1O
3 | inactive | 6% | 1% | Not Active | Not Active | – | – | – | – | CC1=NN(c2ccccc2)C(=O)C1/N=N/c1ccc(S(N)(=O)=O)cc1 (stereo not given)
4 | 8.43% | 6.7% | – | – | – | Not Active | 10.4% | 3.7% | – | Nc1cc(Cl)c(Cl)cc1S(=O)(=O)NO
5 | inactive | – | – | – | – | Not Active | 19% | 3% | Not Active | Cc1cc(OCCCCOc2ccc(C#N)cc2)ccc1[N+](=O)[O-]
6 | 1% | – | – | Not Active | – | Not Active | – | 1% | Not Active | Nc1ccccc1SC1CC(=O)N(c2ccccc2Cl)C1=O (stereo not given)
7 | 13% | 9% | – | – | – | Not Active | 24% | 7% | – | COc1ccc([N+](=O)[O-])cc1NS(=O)(=O)c1ccc(C)cc1
8 | 37% | 6% | – | – | – | Not Active | 17% | 3% | – | COC(=O)CC1(C(=O)OC)Nc2cc(Cl)c(Cl)cc2S(=O)(=O)N1 (stereo not given)
9 | 2% | – | – | – | – | Not Active | 31% | 1% | Not Active | O=[N+]([O-])c1c(N2CCN(CCO)CC2)nc2ccccn12
10 | inactive | 0.8% | – | – | – | Not Active | 23.5% | 12.3% | – | O=C1Nc2cc(Cl)c(Cl)cc2S(=O)(=O)N1O
11 | 9% | 1% | 3% | Not Active | Not Active | – | – | – | – | CC1=CC(C)(C)N=C(S)N1c1cccc2cc(S(=O)(=O)O)ccc12
12 | inactive | 1% | 2% | – | – | – | 19% | 3% | – | O=C(O)Cc1ccc(/N=N/c2c(O)c(C(=O)O)cc3ccccc23)cc1
13 | 1% | 1% | 2% | – | – | – | 3% | 2% | – | CCOC(=O)Cc1cc(=O)[nH]n(-c2ccccc2)c1=O
14 | inactive | – | 5% | Not Active | Not Active | – | – | – | Not Active | CCOC(=O)c1[nH]c(C(=O)O)c(OC(=O)CC)c1C
15 | inactive | – | – | Not Active | – | Not Active | – | 9% | Not Active | CC1(C)[C@H]2CC[C@H](CNC(=N)CSS(=O)(=O)O)[C@@H]1C2
16 | 2% | 6% | 2% | – | – | – | 16% | 3% | – | FC(F)(F)c1cccc(OCC2CN=C(S)O2)c1 (stereo not given)
